Measured values published in patent US20030186890A1, “Amphipathic linear peptides and formulations containing said peptides” (SYNT:EM S.A., priority 2000, published 2003).
“And” between values parts separate entries of the source, which are not always exact repeats. Equal entries are not always repeated.

Tested on: K562 cells
Test: Cell penetration of NBD-labelled peptides by flow cytometry (FACS)
Type: cell-based
Settings: Time 0 min, NBD-labelled peptide 1 μM, 37° C.
Procedure: Cell penetration of the peptides was studied by flow cytometry. The K562 cells were cultured in RPMI medium with 10% foetal calf serum. The cells were diluted to 0.3×10^6 cells per ml 24 hours before the experiment. The cell penetration was measured by flow cytometry using a FACScan (Becton Dickinson, USA). The peptides labelled with NBD (final concentration 1 μM) were incubated with the K562 cells (5×10^5 cells per ml) in Optimem medium at 37° C. for variable periods (the final volume was 0.5 ml). After incubation, the cells were washed twice and then resuspended in 0.5 ml of cold PBS. The penetration was then analysed by FACS. The fluorophors were excited at 488 nm and the fluorescence measured at 525 nm. A histogram of the fluorescent intensity (for 1×10^4 cells) was obtained and the mean distribution considered to be representative of the quantity of peptide associated with the cells.

Substance	penetration (mean fluorescent intensity)
R R L W Y L R R R F (RRLWYLRRRF) [SM4287]	4
RKLWYLRKRF [SM4293]	4.5
R R L W R L L R R F (RRLWRLLRRF) [SM4290]	4
R L R W R L R Y R F (RLRWRLRYRF) [SM4291]	4.5
R R L W R L Y R R F (RRLWRLYRRF) [SM4289]	4
R R L W L L R R R F (RRLWLLRRRF) [SM4288]	4
R G G R L S Y S R R R F S T S T G R (RGGRLSYSRRRFSTSTGR) [SynB1, reference compound]	4
R R L S Y S R R R F (RRLSYSRRRF) [SynB3, reference compound]	4 and 4.5
R G G R L V Y V R R R W V V V V G R (RGGRLVYVRRRWVVVVGR) [SM3980]	4
R G G R L A Y L R R R W A V L V G R (RGGRLAYLRRRWAVLVGR) [SM3979]	4
R L R W R L R L R F (RLRWRLRLRF) [SM4292]	4.5

Same assay, conditions: Time 5 min, NBD-labelled peptide 1 μM, 37° C.

Substance	penetration (mean fluorescent intensity)
R R L W Y L R R R F (RRLWYLRRRF) [SM4287]	29
RKLWYLRKRF [SM4293]	20
R R L W R L L R R F (RRLWRLLRRF) [SM4290]	147
R L R W R L R Y R F (RLRWRLRYRF) [SM4291]	91
R R L W R L Y R R F (RRLWRLYRRF) [SM4289]	63
R R L W L L R R R F (RRLWLLRRRF) [SM4288]	33
R G G R L S Y S R R R F S T S T G R (RGGRLSYSRRRFSTSTGR) [SynB1, reference compound]	7
R R L S Y S R R R F (RRLSYSRRRF) [SynB3, reference compound]	9.5 and 12
R G G R L V Y V R R R W V V V V G R (RGGRLVYVRRRWVVVVGR) [SM3980]	34
R G G R L A Y L R R R W A V L V G R (RGGRLAYLRRRWAVLVGR) [SM3979]	75
R L R W R L R L R F (RLRWRLRLRF) [SM4292]	140

Same assay, conditions: Time 10 min, NBD-labelled peptide 1 μM, 37° C.

Substance	penetration (mean fluorescent intensity)
R R L W Y L R R R F (RRLWYLRRRF) [SM4287]	34
RKLWYLRKRF [SM4293]	23
R R L W R L L R R F (RRLWRLLRRF) [SM4290]	168
R L R W R L R Y R F (RLRWRLRYRF) [SM4291]	99
R R L W R L Y R R F (RRLWRLYRRF) [SM4289]	80
R R L W L L R R R F (RRLWLLRRRF) [SM4288]	38
R G G R L S Y S R R R F S T S T G R (RGGRLSYSRRRFSTSTGR) [SynB1, reference compound]	7
R R L S Y S R R R F (RRLSYSRRRF) [SynB3, reference compound]	10 and 13
R G G R L V Y V R R R W V V V V G R (RGGRLVYVRRRWVVVVGR) [SM3980]	42
R G G R L A Y L R R R W A V L V G R (RGGRLAYLRRRWAVLVGR) [SM3979]	95
R L R W R L R L R F (RLRWRLRLRF) [SM4292]	140

Same assay, conditions: Time 30 min, NBD-labelled peptide 1 μM, 37° C.

Substance	penetration (mean fluorescent intensity)
R R L W Y L R R R F (RRLWYLRRRF) [SM4287]	50
RKLWYLRKRF [SM4293]	29
R R L W R L L R R F (RRLWRLLRRF) [SM4290]	366
R L R W R L R Y R F (RLRWRLRYRF) [SM4291]	107
R R L W R L Y R R F (RRLWRLYRRF) [SM4289]	107
R R L W L L R R R F (RRLWLLRRRF) [SM4288]	53
R G G R L S Y S R R R F S T S T G R (RGGRLSYSRRRFSTSTGR) [SynB1, reference compound]	8
R R L S Y S R R R F (RRLSYSRRRF) [SynB3, reference compound]	12 and 15
R G G R L V Y V R R R W V V V V G R (RGGRLVYVRRRWVVVVGR) [SM3980]	54
R G G R L A Y L R R R W A V L V G R (RGGRLAYLRRRWAVLVGR) [SM3979]	100
R L R W R L R L R F (RLRWRLRLRF) [SM4292]	141

Same assay, conditions: Time 60 min, NBD-labelled peptide 1 μM, 37° C.

Substance	penetration (mean fluorescent intensity)
R R L W Y L R R R F (RRLWYLRRRF) [SM4287]	60
RKLWYLRKRF [SM4293]	31
R R L W R L L R R F (RRLWRLLRRF) [SM4290]	371
R L R W R L R Y R F (RLRWRLRYRF) [SM4291]	118
R R L W R L Y R R F (RRLWRLYRRF) [SM4289]	135
R R L W L L R R R F (RRLWLLRRRF) [SM4288]	61
R G G R L S Y S R R R F S T S T G R (RGGRLSYSRRRFSTSTGR) [SynB1, reference compound]	12
R R L S Y S R R R F (RRLSYSRRRF) [SynB3, reference compound]	16 and 23
R G G R L V Y V R R R W V V V V G R (RGGRLVYVRRRWVVVVGR) [SM3980]	62
R G G R L A Y L R R R W A V L V G R (RGGRLAYLRRRWAVLVGR) [SM3979]	114
R L R W R L R L R F (RLRWRLRLRF) [SM4292]	146

Same assay, conditions: at 60 min

Substance	penetration relative to that of SynB1 [times]
R G G R L V Y V R R R W V V V V G R (RGGRLVYVRRRWVVVVGR) [SM3980]	5
R G G R L A Y L R R R W A V L V G R (RGGRLAYLRRRWAVLVGR) [SM3979]	9

Same assay, conditions: irrespective of the time interval

Substance	penetration compared with the reference peptide (in words)
R G G R L V Y V R R R W V V V V G R (RGGRLVYVRRRWVVVVGR) [SM3980]	penetrate much more effectively
R G G R L A Y L R R R W A V L V G R (RGGRLAYLRRRWAVLVGR) [SM3979]	penetrate much more effectively

Tested on: not given
Test: not given
Settings: mouse, in vivo

Substance	increase of passage into the brain (influx constant Kin) versus doxorubicin alone [times]
Doxo-(RGGRLSYSCitCitCitFSTSTGR) [Doxo-SynB1/3Cit]	20
